Results as given in ChEMBL document CHEMBL3856228, “Design and Synthesis of Pyridone-Containing 3,4-Dihydroisoquinoline-1(2H)-ones as a Novel Class of Enhancer of Zeste Homolog 2 (EZH2) Inhibitors” (J Med Chem, 2016).
Converted amounts (≈) assume the structure as drawn. The source made the active and inactive calls. No cut-off for these calls is given here.

How the values were obtained:
[1] = Intrinsic clearance in human liver microsomes at 1 uM after 45 mins in presence of NADPH by LC-MS/MS analysis; assay type: ADME; conditions: read-out: CLH
[2] = biological target: T1, Histone-lysine N-methyltransferase EZH2 (Homo sapiens, UniProt O75530+Q09028+Q15022+Q15910); test: Binding affinity to EZH2 (unknown origin) expressed in baculovirus infected SF9 cells co-expressing SUZ12/EED/RbAp48 complex by ITC analysis
T1 sequence (Q15910 whole entry, one chain of several): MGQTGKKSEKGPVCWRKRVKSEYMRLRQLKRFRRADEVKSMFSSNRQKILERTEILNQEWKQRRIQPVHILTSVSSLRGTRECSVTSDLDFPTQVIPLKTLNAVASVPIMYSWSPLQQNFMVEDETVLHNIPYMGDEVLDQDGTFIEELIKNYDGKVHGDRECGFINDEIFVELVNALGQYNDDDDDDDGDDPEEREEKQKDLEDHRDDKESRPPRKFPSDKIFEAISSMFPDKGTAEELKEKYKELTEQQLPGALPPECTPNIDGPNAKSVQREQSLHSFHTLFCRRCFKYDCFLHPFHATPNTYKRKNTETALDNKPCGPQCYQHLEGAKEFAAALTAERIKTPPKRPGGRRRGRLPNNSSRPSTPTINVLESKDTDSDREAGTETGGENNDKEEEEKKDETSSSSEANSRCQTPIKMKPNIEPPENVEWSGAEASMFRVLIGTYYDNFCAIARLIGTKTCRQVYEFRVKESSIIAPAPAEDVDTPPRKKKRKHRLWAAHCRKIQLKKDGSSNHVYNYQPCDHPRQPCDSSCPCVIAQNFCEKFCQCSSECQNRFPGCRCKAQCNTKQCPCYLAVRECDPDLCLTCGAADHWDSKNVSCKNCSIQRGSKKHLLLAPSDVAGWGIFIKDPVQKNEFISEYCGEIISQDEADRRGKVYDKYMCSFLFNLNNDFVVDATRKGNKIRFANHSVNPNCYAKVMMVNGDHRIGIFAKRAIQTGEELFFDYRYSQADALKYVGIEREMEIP

[3] = biological target: T1, Histone-lysine N-methyltransferase EZH2; test: Inhibition of wild-type EZH2 (unknown origin) expressed in baculovirus infected SF9 cells co-expressing SUZ12/EED/RbAp48 complex using HeLa cells derived oligonucleosomes as substrate after 60 mins in presence of [3H] SAM by scintillation counting
[4] = Lipophilicity, log D of the compound at pH 7.4; conditions: buffer
[5] = biological target: Histone-lysine N-methyltransferase EZH2 (Homo sapiens, UniProt O75530+Q09028+Q15022+Q15910, Y641N); test: Inhibition of EZH2 Y641N mutant (unknown origin) expressed in baculovirus infected SF9 cells co-expressing SUZ12/EED/RbAp48 complex using HeLa cells derived oligonucleosomes as substrate after 60 mins in presence of [3H] SAM by scintillation counting
Histone-lysine N-methyltransferase EZH2 (Homo sapiens, UniProt O75530+Q09028+Q15022+Q15910, Y641N), sequence (Q15910 whole entry Y641N, one chain of several): as the sequence (Q15910 whole entry, one chain of several) above, with Y641N counted along it

[6] = Cytotoxicity against human KARPAS422 cells assessed as inhibition of cell proliferation after 72 hrs; assay type: functional, cell-based; conditions: KARPAS-422, 72 h
[7] = biological target: Histone-lysine N-methyltransferase EZH2 (Homo sapiens, UniProt Q15910); test: Inhibition of EZH2 in human KARPAS422 cells assessed as reduction in H3K27Me3 levels after 72 hrs by ELISA; assay type: cell-based
Histone-lysine N-methyltransferase EZH2 (Homo sapiens, UniProt Q15910), sequence (Q15910 whole entry): as the sequence (Q15910 whole entry, one chain of several) above

[8] = Permeability in RRCK cells; assay type: ADME, cell-based, Canis lupus familiaris, MDCKII-LE; conditions: dog, MDCK; read-out: permeability
MDR1 [9] = test: Permeability across apical to basolateral side in MDCK cells expressing MDR1; assay type: ADME, cell-based, Canis lupus familiaris; conditions: dog, read-out: permeability
[10] = Kinetic solubility of the compound; assay type: physicochemical; conditions: read-out: Kinetic_solubility
[11] = Intrinsic clearance in mouse liver microsomes at 1 uM after 45 mins in presence of NADPH by LC-MS/MS analysis; assay type: ADME; conditions: read-out: CLH
MDR1 [12] = test: in vitro; conditions: dog, MDCK-MDR1
Description: Efflux ratio of permeability from basolateral to apical side over apical to basolateral side in MDCK cells expressing MDR1

[13] = Time duration during which free plasma concentration stays at or below in vitro cell IC50 in mouse at 30 to 100 mg/kg; assay type: ADME, organism-based; conditions: in vivo
Mus musculus [14] = test: In vivo inhibition of EZH2 in Scid beige mouse xenografted with human KARPAS422 cells assessed as reduction in H3K27Me3 levels at 300 mg/kg, bid for 20 days measured 1 to 4 hrs post last dose on day 20 by ELISA; assay type: functional; conditions: KARPAS-422
Mus musculus [15] = test: In vivo inhibition of EZH2 in Scid beige mouse xenografted with human KARPAS422 cells assessed as upregulation of PRDM1 expression at 200 mg/kg, bid for 20 days measured 1 to 4 hrs post last dose on day 20 relative to control; assay type: functional
[16] = Protein binding in mouse plasma at 30 to 300 mg/kg; assay type: ADME, organism-based; conditions: read-out: PPB (converted)
KARPAS-422 [17] = test: Antitumor activity against human KARPAS422 cells xenografted in Scid beige mouse assessed as tumor growth inhibition at 200 to 300 mg/kg, bid for 20 days measured for 3 weeks post last dose; assay type: functional, organism-based
[18] = Time duration during which free plasma concentration stays above in vitro cell IC90 in mouse at 300 mg/kg; assay type: ADME, organism-based; conditions: in vivo
Mus musculus [19] = test: Toxicity in Scid beige mouse xenografted with human KARPAS422 cells assessed as body weight loss at 200 to 300 mg/kg, bid for 20 days measured during compound dosing; assay type: organism-based; conditions: in vivo, 480 h
KARPAS-422 [20] = test: Antitumor activity against human KARPAS422 cells xenografted in Scid beige mouse assessed as tumor regression at 200 to 300 mg/kg, bid for 20 days measured on day 20; assay type: functional, organism-based
Mus musculus [21] = test: In vivo inhibition of EZH2 in human KARPAS422 cells xenografted in Scid beige mouse assessed as reduction in H3K27Me3 levels at 200 mg/kg, bid for 20 days measured 1 to 4 hrs post last dose on day 20 by ELISA; assay type: functional; conditions: KARPAS-422
Mus musculus [22] = test: In vivo inhibition of EZH2 in Scid beige mouse xenografted with human KARPAS422 cells assessed as upregulation of TNFRSF21 expression at 300 mg/kg, bid for 20 days measured 1 to 4 hrs post last dose on day 20 relative to control; assay type: functional
Mus musculus [23] = test: In vivo inhibition of EZH2 in Scid beige mouse xenografted with human KARPAS422 cells assessed as upregulation of PRDM1 expression at 300 mg/kg, bid for 20 days measured 1 to 4 hrs post last dose on day 20 relative to control; assay type: functional
Mus musculus [24] = test: In vivo inhibition of EZH2 in Scid beige mouse xenografted with human KARPAS422 cells assessed as upregulation of TNFRSF21 expression at 200 mg/kg, bid for 20 days measured 1 to 4 hrs post last dose on day 20 relative to control; assay type: functional
KARPAS-422 [25] = test: Antitumor activity against human KARPAS422 cells xenografted in Scid beige mouse assessed as tumor stasis at 200 to 300 mg/kg, bid for 20 days measured on day 20; assay type: functional, organism-based

SMILES	microsomal CLint at 1 µM [1]	IC50 [3]	logD [4]	IC50 [6]	IC50 [7]	other results
Cc1cc(C)c(CN2CCc3ccc(OC(C)C)c(C)c3C2=O)c(=O)[nH]1	102 µL/min/mg	160 nM				Kd [2]: 37.4 nM
COc1cccc(C(=O)NCc2c(C)cc(C)[nH]c2=O)c1		> 150000 nM	1.7			
Cc1cc(C)c(CN2CCc3c(Cl)cc(-c4cn[nH]c4)c(Cl)c3C2=O)c(=O)[nH]1		51 nM	3	1580 nM	1730 nM	IC50 [5]: 270 to 271 nM
Cc1cc(C)c(CN2CCc3ccc(OC(C)C)cc3C2=O)c(=O)[nH]1	19 µL/min/mg		2.5			
Cc1cc(C)c(CN2CCc3ccc(OC(C)C)c(Cl)c3C2=O)c(=O)[nH]1	53 to 53.8 µL/min/mg		2.7	1160 nM	1190 nM	Papp [8]: 19.6 ×10⁻⁶ cm/s; Papp A→B (MDR1 [9]): 7.9 ×10⁻⁶ cm/s; solubility kinetic [10]: 19.6 µM (≈ 7.35 µg/mL)
COc1cccc(C(=O)NCc2c(C)cc(C)[nH]c2=O)c1F		> 150000 nM	1.4			
COc1cccc(C(=O)NCc2c(C)cc(C)[nH]c2=O)c1Cl	8 µL/min/mg	7200 nM	1.2			
Cc1cc(C)c(CN2CCc3c(F)cc(O[C@@H]4CCOC4)c(Cl)c3C2=O)c(=O)[nH]1		56 nM	2.1	1030 nM	994 nM	IC50 [5]: 260 nM
Cc1cc(C)c(CN2CCc3ccc(O[C@@H]4CCOC4)c(Cl)c3C2=O)c(=O)[nH]1	21 µL/min/mg		1.5	512 nM	796 nM	Papp [8]: 12.3 ×10⁻⁶ cm/s; Papp A→B (MDR1 [9]): 1.7 ×10⁻⁶ cm/s; solubility kinetic [10]: 510 µM (≈ 205 µg/mL); microsomal CLint at 1 µM [11]: 31 µL/min/mg
COc1cccc(C(=O)NCc2c(C)cc(C)[nH]c2=O)c1OC		> 140000 nM	1.7			
Cc1cc(C)c(CN2CCc3c(Cl)cc(-c4cn[nH]c4C)c(Cl)c3C2=O)c(=O)[nH]1		24 nM	3.1	1340 nM	873 nM	IC50 [5]: 110 nM
Cc1cc(C)c(CNC(=O)c2cccc(OC(C)C)c2Cl)c(=O)[nH]1		1300 nM	2			
CCOc1ccc2c(c1Cl)C(=O)N(Cc1c(C)cc(C)[nH]c1=O)CC2	37 µL/min/mg		2.2			
Cc1cc(C)c(CNC(=O)c2cccc(OC(C)C)c2C)c(=O)[nH]1		1400 nM	2.1			Kd [2]: 252 nM
Cc1cc(C)c(CN2CCc3c(Cl)cc(O[C@@H]4CCOC4)c(Cl)c3C2=O)c(=O)[nH]1	21 µL/min/mg	5.6 nM	2.5	155 nM	170 nM	IC50 [5]: 18 nM; Papp [8]: 14.7 ×10⁻⁶ cm/s; Papp A→B (MDR1 [9]): 4.5 ×10⁻⁶ cm/s; solubility kinetic [10]: 26 µM (≈ 11.4 µg/mL); microsomal CLint at 1 µM [11]: 163 µL/min/mg; efflux ratio (MDR1 [12]): 4.7
COc1ccc2c(c1Cl)C(=O)N(Cc1c(C)cc(C)[nH]c1=O)CC2	35 µL/min/mg		1.8			
COc1ccc2c(c1Cl)C(=O)N(Cc1c(C)cc(C)[nH]c1=O)CCC2	82 µL/min/mg	150 nM	1.7			
COc1cccc(C(=O)NCc2c(C)cc(C)[nH]c2=O)c1O		44000 nM	1.9			
CCOc1cccc(C(=O)NCc2c(C)cc(C)[nH]c2=O)c1C		2000 nM	2.1			
Cc1cc(C)c(CN2CCc3ccc(-c4c(C)noc4C)c(Cl)c3C2=O)c(=O)[nH]1		3.2 nM	2.6	121 nM	105 nM	IC50 [5]: 8.8 nM; Ki [5]: 6.3 nM; Ki [3]: 2 nM
COc1ccc2c(c1Cl)C(=O)N(Cc1c(C)cc(C)[nH]c1=O)CCO2	40 µL/min/mg	650 nM	1.3			
Cc1cc(C)c(CN2CCc3c(C)cc(O[C@@H]4CCOC4)c(Cl)c3C2=O)c(=O)[nH]1		18 nM	2.1	406 nM	290 nM	IC50 [5]: 61 nM
Cc1cc(C)c(CN2CCc3c(Cl)cc(-c4c(C)noc4C)c(Cl)c3C2=O)c(=O)[nH]1	107 µL/min/mg		3.1	25 nM	15 nM	Time [13]: 6 h; Papp [8]: 15.7 ×10⁻⁶ cm/s; Papp A→B (MDR1 [9]): 5.2 ×10⁻⁶ cm/s; solubility kinetic [10]: 93.5 µM (≈ 41.7 µg/mL); microsomal CLint at 1 µM [11]: 531 µL/min/mg; inhibition in vivo at 300 mg/kg (Mus musculus [14]): 66.4%; fold change (FC) (Mus musculus [15]): 31.6; fraction unbound [16]: 0.85; TGI (KARPAS-422 [17]): Active; Time [18]: <= 6 hr; Activity (Mus musculus [19]): < 10%; Activity (KARPAS-422 [20]): Active; inhibition in vivo at 200 mg/kg (Mus musculus [21]): 55.5%; fold change (FC) (Mus musculus [22]): 208.9; fold change (FC) (Mus musculus [23]): 57.9; fold change (FC) (Mus musculus [24]): 99.2; Ki [3]: 0.7 nM; efflux ratio (MDR1 [12]): 4.6; Activity (KARPAS-422 [25]): Active
Cc1cc(C)c(CN2CCc3c(Cl)cc(-c4c(C)nn(C)c4C)c(Cl)c3C2=O)c(=O)[nH]1		1500 nM	3.4	12800 nM	15300 nM	IC50 [5]: 6000 nM
Cc1cc(C)c(CN2CCc3c(Cl)cc(-c4c(C)n[nH]c4C)c(Cl)c3C2=O)c(=O)[nH]1		16 nM	3.4	959 nM	502 nM	IC50 [5]: 82 nM
Cc1cc(C)c(CNC(=O)c2ccccc2C)c(=O)[nH]1		> 200000 nM				
COc1cccc(C(=O)NCc2c(C)cc(C)[nH]c2=O)c1C		5700 nM	1.5			
